Laboratory results: article PMC12519282, “Reduction of Negative Charge in Mercaptoacetyl-Based Chelators Influences the Biodistribution of Prostate-Specific Membrane Antigen-Targeting Pseudopeptides Labeled with Technetium-99m” (ACS Pharmacology & Translational Science, 2025)
Read-outs that look alike come from different tables or passages of the source. Marks after values point to notes of the source that are not given here.

What was measured:
PSMA [1] = molecular target: T1, PSMA (Homo sapiens, UniProt Q04609); settings: cited from earlier work
T1 construct: expressed in transfected cells; host or cells: PC3-pip (PSMA-transfected PC-3 prostate carcinoma cells), from Prof; Martin G. Pomper, Johns Hopkins University

PC3-pip xenografts [2] = test: biodistribution and tumor targeting in PC3-pip tumor-bearing mice; assay type: in vivo; settings: PC3-pip tumor-bearing mice, 5 nmol/mouse iv
From the text: The injected masses for the in vivo experiments were chosen based on the findings for [^99mTc]-Tc-BQ0413: to study the general biodistribution of radiolabeled tracers in normal mice (NMRI), 40 pmol of tracer was used to avoid blocking of PSMA-mediated uptake in kidneys and salivary glands, to study tumor targeting, 5 nmol of tracer was used to decrease uptake in PSMA-expressing organs.
PSMA-expressing PCa xenografts were implanted in BALB/c nu/nu mice by subcutaneous injection of the PC3-pip cell suspension in PBS (10^7 cells/animal in 100 μL). The average animal weight in the experiment was 18 ± 2 g. The average tumor weight was 0.4 ± 0.2 g. For in vivo specificity control, 10^7 cells/animal PSMA-negative PC-3 cells were implanted. The average animal weight was 18 ± 1 g. The average tumor weight was 0.1 ± 0.1 g. Four mice per data point were used in the in vivo experiments.
For tumor-bearing mice, each mouse was intravenously injected with 5 nmol of [^99mTc]-Tc-BQ0413, [^99mTc]-Tc-BQ0500, and [^99mTc]-Tc-BQ0501 (60 kBq; the mass of the injected compound was adjusted with an unlabeled tracer). The mice were euthanized after lethal intraperitoneal injection of ketamine/xylazine, followed by exsanguination 1 and 3 h pi, similarly to the procedure described above.

PSMA [3] = molecular target: T1, PSMA; test: binding kinetics in real time on living PC3-pip cells (LigandTracer Yellow); settings: 5 nM tracer, 1:2 model (1:1 for BQ0413)
Description: The binding kinetics of technetium-99m-labeled BQ0413, BQ0500, and BQ0501 were determined in PC3-pip cells in real-time using LigandTracer Yellow (Ridgeview Instruments AB, Uppsala, Sweden). The activity binding was recorded with 5 nM radiolabeled tracers for 150 min. After the binding kinetics were measured, the medium containing the labeled tracer was replaced with fresh medium, and the dissociation was monitored over 7 h. The association rate (k a) and the dissociation rate (k d) were computed using a 1:2 kinetic binding model in TraceDrawer software (Ridgeview Instruments AB, Uppsala, Sweden), and the equilibrium dissociation constant K D was calculated.

PC3-pip xenografts [4] = settings: in vivo; cited from earlier work
physchem = assay type: physicochemical; settings: pH 7.4
Description: To evaluate the label’s stability, 10 μL (0.25 μg) of radiolabeled conjugates was incubated with 300× molar excess of cysteine or with PBS for 1 h at room temperature. The test was run in triplicate. The release of free technetium-99m was controlled by using iTLC and radio-HPLC analysis. The stability in serum was analyzed by mixing the radioconjugates (0.25 μg in 10 μL) with murine serum or PBS (40 μL) as a control. The samples were incubated for 1 h at 37 °C and analyzed by iTLC. The experiment was performed in triplicate. The octanol–water distribution coefficient (Log D) was determined experimentally by the addition of 100 pmol of the radiolabeled tracer to an Eppendorf tube containing PBS (500 μL) and n-octanol (500 μL), pH ∼ 7.4. The solution was vortexed and centrifuged, and aliquots (50 μL) from each phase were collected and measured using a gamma counter. The experiment was performed in triplicate.

T1 sequence (Q04609 whole entry): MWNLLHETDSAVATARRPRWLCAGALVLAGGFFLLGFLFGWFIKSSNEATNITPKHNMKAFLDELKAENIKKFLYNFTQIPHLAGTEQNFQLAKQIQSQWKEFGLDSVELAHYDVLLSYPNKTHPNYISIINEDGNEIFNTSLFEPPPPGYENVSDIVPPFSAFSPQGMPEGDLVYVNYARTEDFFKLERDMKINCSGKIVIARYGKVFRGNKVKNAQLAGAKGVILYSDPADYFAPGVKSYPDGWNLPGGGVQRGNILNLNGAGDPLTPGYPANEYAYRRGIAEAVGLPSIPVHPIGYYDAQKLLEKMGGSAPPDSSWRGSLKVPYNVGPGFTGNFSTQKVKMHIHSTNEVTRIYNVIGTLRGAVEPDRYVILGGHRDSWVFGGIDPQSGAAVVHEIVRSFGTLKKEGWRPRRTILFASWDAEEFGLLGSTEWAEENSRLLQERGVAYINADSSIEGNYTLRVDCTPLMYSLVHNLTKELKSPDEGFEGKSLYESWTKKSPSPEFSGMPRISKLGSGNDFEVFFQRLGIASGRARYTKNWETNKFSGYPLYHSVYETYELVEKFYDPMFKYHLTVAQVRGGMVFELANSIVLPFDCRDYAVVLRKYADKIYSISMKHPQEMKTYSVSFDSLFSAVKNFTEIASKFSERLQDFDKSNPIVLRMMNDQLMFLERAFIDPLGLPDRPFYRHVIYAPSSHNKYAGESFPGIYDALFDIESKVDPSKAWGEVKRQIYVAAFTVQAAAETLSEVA

For `O=C(O)CCc1ccc(O)c(CN(CCN(CC(=O)O)Cc2cc(CCC(=O)NCCCCCC(=O)NCCCC[C@H](NC(=O)N[C@@H](CCC(=O)O)C(=O)O)C(=O)O)ccc2O)CC(=O)O)c1` [PSMA-11], the Kd (PSMA [1]; nonlabeled PSMA-11, ref 29 (inferred, citation mark not shown)) is listed as 0.5 ± 0.2 nM.

In the case of `CC(=O)NC(CCCCNC(=O)CNC(=O)C(CCC(=O)O)NC(=O)C(CCC(=O)O)NC(=O)C(CCC(=O)O)NC(=O)CS)C(=O)NCCCCCCCC(=O)NC(Cc1ccc(O)cc1)C(=O)NC(Cc1ccc2ccccc2c1)C(=O)NCCCCC(NC(=O)NC(CCC(=O)O)C(=O)O)C(=O)O` (stereo not shown) [[^99mTc]Tc-BQ0413, metal not drawn, reference compound], the activity in carcass (PC3-pip xenografts [2]; 1 h pi) is reported as 8 ± 2 ^b %IA/sample, the “activity in intestines with content” value (PC3-pip xenografts [2]; 1 h pi) is reported as 1.7 ± 0.4 %IA/sample and the “activity uptake in blood” value (PC3-pip xenografts [2]; 1 h pi) is reported as 1.0 ± 0.3 ^b %IA/g. The “activity uptake in bone” value (PC3-pip xenografts [2]; 1 h pi) was 0.9 ± 0.3 ^b %IA/g, the “activity uptake in kidney” value (PC3-pip xenografts [2]; 1 h pi) was 23 ± 3 ^b %IA/g and the “activity uptake in liver” value (PC3-pip xenografts [2]; 1 h pi) was 1.3 ± 0.4 ^b %IA/g. The “activity uptake in lung” value (PC3-pip xenografts [2]; 1 h pi) was 1.2 ± 0.2 ^b %IA/g, the “activity uptake in muscle” value (PC3-pip xenografts [2]; 1 h pi) was 0.3 ± 0.1 ^b %IA/g and the “activity uptake in pancreas” value (PC3-pip xenografts [2]; 1 h pi) was 0.6 ± 0.1 ^b %IA/g. For the same compound, the “activity uptake in salivary gland” value (PC3-pip xenografts [2]; 1 h pi) was 1.4 ± 0.2 ^b %IA/g, the “activity uptake in small intestines” value (PC3-pip xenografts [2]; 1 h pi) was 0.5 ± 0.1^b %IA/g and the “activity uptake in spleen” value (PC3-pip xenografts [2]; 1 h pi) was 1.9 ± 0.8 %IA/g. The “activity uptake in stomach” value (PC3-pip xenografts [2]; 1 h pi) was 1.5 ± 0.4 %IA/g, the “activity uptake in tumor” value (PC3-pip xenografts [2]; 1 h pi) was 19 ± 4 %IA/g and the tumor-to-blood ratio (PC3-pip xenografts [2]; 1 h pi) was 22 ± 12 ^b. For the same compound, the tumor-to-bone ratio (PC3-pip xenografts [2]; 1 h pi) was 27 ± 17 ^b, the tumor-to-kidney ratio (PC3-pip xenografts [2]; 1 h pi) was 0.9 ± 0.3 ^b and the tumor-to-liver ratio (PC3-pip xenografts [2]; 1 h pi) was 17 ± 9 ^b. For the same compound, the tumor-to-lung ratio (PC3-pip xenografts [2]; 1 h pi) was 16 ± 5 ^b, the tumor-to-muscle ratio (PC3-pip xenografts [2]; 1 h pi) was 62 ± 25 ^b and the tumor-to-pancreas ratio (PC3-pip xenografts [2]; 1 h pi) was 38 ± 5 ^b. For the same compound, the tumor-to-salivary gland ratio (PC3-pip xenografts [2]; 1 h pi) was 14 ± 3 ^b, the tumor-to-small intestines ratio (PC3-pip xenografts [2]; 1 h pi) was 41 ± 17 ^b and the tumor-to-spleen ratio (PC3-pip xenografts [2]; 1 h pi) was 9 ± 3 ^b. The tumor-to-stomach ratio (PC3-pip xenografts [2]; 1 h pi) was 13 ± 2 ^b, the activity in carcass (PC3-pip xenografts [2]; 3 h pi) was 1.7 ± 0.3 %IA/sample and the “activity in intestines with content” value (PC3-pip xenografts [2]; 3 h pi) was 1.7 ± 0.2 %IA/sample. For the same compound, the “activity uptake in blood” value (PC3-pip xenografts [2]; 3 h pi) was 0.17 ± 0.04 %IA/g, the “activity uptake in bone” value (PC3-pip xenografts [2]; 3 h pi) was 0.2 ± 0.1 %IA/g and the “activity uptake in kidney” value (PC3-pip xenografts [2]; 3 h pi) was 9 ± 2 %IA/g. The “activity uptake in liver” value (PC3-pip xenografts [2]; 3 h pi) was 0.3 ± 0.1 %IA/g, the “activity uptake in lung” value (PC3-pip xenografts [2]; 3 h pi) was 0.3 ± 0.1 %IA/g and the “activity uptake in muscle” value (PC3-pip xenografts [2]; 3 h pi) was 0.06 ± 0.02 %IA/g. For the same compound, the “activity uptake in pancreas” value (PC3-pip xenografts [2]; 3 h pi) was 0.13 ± 0.02 %IA/g, the “activity uptake in salivary gland” value (PC3-pip xenografts [2]; 3 h pi) was 0.5 ± 0.1 %IA/g and the “activity uptake in small intestines” value (PC3-pip xenografts [2]; 3 h pi) was 0.2 ± 0.1 %IA/g. The “activity uptake in spleen” value (PC3-pip xenografts [2]; 3 h pi) was 0.9 ± 0.5 %IA/g, the “activity uptake in stomach” value (PC3-pip xenografts [2]; 3 h pi) was 0.6 ± 0.2 %IA/g and the “activity uptake in tumor” value (PC3-pip xenografts [2]; 3 h pi) was 17 ± 3 %IA/g. The tumor-to-blood ratio (PC3-pip xenografts [2]; 3 h pi) was 94 ± 3, the tumor-to-bone ratio (PC3-pip xenografts [2]; 3 h pi) was 114 ± 29 and the tumor-to-kidney ratio (PC3-pip xenografts [2]; 3 h pi) was 1.9 ± 0.3. The tumor-to-liver ratio (PC3-pip xenografts [2]; 3 h pi) was 48 ± 5, the tumor-to-lung ratio (PC3-pip xenografts [2]; 3 h pi) was 52 ± 8 and the tumor-to-muscle ratio (PC3-pip xenografts [2]; 3 h pi) was 284 ± 19. The tumor-to-pancreas ratio (PC3-pip xenografts [2]; 3 h pi) was 135 ± 11, the tumor-to-salivary gland ratio (PC3-pip xenografts [2]; 3 h pi) was 31 ± 3 and the tumor-to-small intestines ratio (PC3-pip xenografts [2]; 3 h pi) was 126 ± 57. The tumor-to-spleen ratio (PC3-pip xenografts [2]; 3 h pi) was 16 ± 4, the tumor-to-stomach ratio (PC3-pip xenografts [2]; 3 h pi) was 24 ± 2 and the “B max1 (binding maximum)” value (PSMA [3]) was 947 CPS. The Kd (PSMA [3]; read-out: K D1) was 0.089 nM, the excretion pathway (PC3-pip xenografts [4]) was “renal” and the tumor uptake (PC3-pip xenografts [4]) was 33 ± 3%IA/g (3 h). For the same compound, the tumor-to-blood ratio (PC3-pip xenografts [4]) was 314 ± 73 (3 h), the “Log D (octanol–water distribution coefficient)” value (physchem) was −2.5 ± 0.1 and the Kd (PSMA [1]; PC3-pip, ref 15 (inferred, reference cell empty)) was 0.033 nM.
